Measurements as given in US9725459B2, “3-oxo-tetrahydro-furo[3,2-B]pyrrol-4(5H)-yl) derivatives I” (GRÜNENTHAL GMBH, priority 2014, dated 2017).

Tests used:
Type in all cases: biochemical
[1] = target: human cathepsin S (CatS) (Homo sapiens (Human), UniProt P25774); test: CatS functional enzyme assay; conditions: for Selectivity Ki(hCatS)/Ki(hCatK): ratio Ki(hCatS)/Ki(hCatK); for Ki: recombinant human CatS, substrate Z-VVR-AMC 5 μM, pH 6.5, Ki by Cheng Prusoff equation, read-out: hCatS, Ki
Method: Reference and test compounds were assayed for inhibitory potency (IC50) against human cathepsins using the following assay setups: Recombinant human cathepsins (CatS, CatK, CatL) were purchased from a Enzo Life Sciences. […] For CatS, the enzyme (0.0007 mU/well) was incubated with fluorogeninc substrate (Z-VVR-AMC, 5 μM) at RT for 10 min. For CatK the enzyme (0.00175 mU/well) was incubated with fluorogeninc substrate (Z-FR-AMC, 40 μM) at RT for 10 min. For CatL, the enzyme (0.000874 mU/well) was incubated with fluorogeninc substrate (Z-VVR-AMC, 40 μM) at RT for 10 min. Flourogenic substrate turnover was detected using a microplate reader (Synergy™ H4, BioTek). Ki values were calculated using the Cheng Prusoff equation (Cheng & Prosoff 1973).

[2] = target: human cathepsin L (CatL) (Homo sapiens (Human), UniProt P07711); test: CatL functional enzyme assay; conditions: read-out: hCatL, inhibition [%] at 31.6 μM
Method: (§1) Reference and test compounds were assayed for inhibitory potency (IC50) against human cathepsins using the following assay setups:
(§2) Recombinant human cathepsins (CatS, CatK, CatL) were purchased from a Enzo Life Sciences. All assays were carried out in 96-well format using a buffer of 50 mM KH2PO4, 50 mM NaCl, 2 mM EDTA, 0.5 mM DTT and 1% Triton-X-100, pH 6.5 for Cathepsin S and a buffer of 50 mM NaOAc, 10 mM EDTA, 1 mM DTT and 0.01% Triton-X-100, pH 5.5 for CatK/L/B. For CatS, the enzyme (0.0007 mU/well) was incubated with fluorogeninc substrate (Z-VVR-AMC, 5 μM) at RT for 10 min. For CatK the enzyme (0.00175 mU/well) was incubated with fluorogeninc substrate (Z-FR-AMC, 40 μM) at RT for 10 min. For CatL, the enzyme (0.000874 mU/well) was incubated with fluorogeninc substrate (Z-VVR-AMC, 40 μM) at RT for 10 min. Flourogenic substrate turnover was detected using a microplate reader (Synergy™ H4, BioTek). Ki values were calculated using the Cheng Prusoff equation (Cheng & Prosoff 1973).

[3] = target: human cathepsin K (CatK) (Homo sapiens (Human), UniProt P43235); test: CatK functional enzyme assay; conditions: recombinant human CatK, substrate Z-FR-AMC 40 μM, pH 5.5; Ki by Cheng Prusoff equation; read-out: hCatK, Ki
Method: as §1, §2

Chain of human cathepsin S (CatS) (P25774 115-331): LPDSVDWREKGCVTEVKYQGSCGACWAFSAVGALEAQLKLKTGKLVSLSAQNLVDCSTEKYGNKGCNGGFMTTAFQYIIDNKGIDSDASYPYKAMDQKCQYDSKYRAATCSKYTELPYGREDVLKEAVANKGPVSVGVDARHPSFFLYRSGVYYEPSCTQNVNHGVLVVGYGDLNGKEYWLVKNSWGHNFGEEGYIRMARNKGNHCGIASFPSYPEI
Chain of human cathepsin L (CatL) (P07711 114-333): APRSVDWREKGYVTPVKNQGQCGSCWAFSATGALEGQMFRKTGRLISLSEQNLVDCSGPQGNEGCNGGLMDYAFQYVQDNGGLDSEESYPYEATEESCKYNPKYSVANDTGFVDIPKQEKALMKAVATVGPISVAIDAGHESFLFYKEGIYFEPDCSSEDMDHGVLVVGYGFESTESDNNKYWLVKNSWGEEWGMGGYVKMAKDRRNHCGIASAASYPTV
Chain of human cathepsin K (CatK) (P43235 115-329): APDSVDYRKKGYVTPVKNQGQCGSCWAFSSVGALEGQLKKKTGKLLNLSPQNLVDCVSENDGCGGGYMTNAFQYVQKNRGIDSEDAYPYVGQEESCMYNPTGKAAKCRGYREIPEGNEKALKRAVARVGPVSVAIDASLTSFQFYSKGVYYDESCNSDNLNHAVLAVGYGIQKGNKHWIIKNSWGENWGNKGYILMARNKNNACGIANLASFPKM

| Compound | Selectivity Ki(hCatS)/Ki(hCatK) [1] | inhibition at 31.6 µM [2] | Ki [3] | Ki [1] | inhibition at 10 µM ([1]; read-out: hCatS, inhibition [%] at 10 μM) |
| --- | --- | --- | --- | --- | --- |
| O=C(N[C@H](C(=O)N1C[C@H](Cl)[C@H]2OCC(=O)[C@H]21)C1CCCCC1)c1ccc(-c2ccc(F)nn2)s1 [Example 38, N-((S)-2-((3aS,6S,6aS)-6-chloro-3-oxotetrahydro-2H-furo[3,2-b]pyrrol-4(5H)-yl)-1-cyclohexyl-2-oxoethyl)-5-(6-fluoropyridazin-3-yl)thiophene-2-carboxamide] | 10.7 | 30% | 0.02 µM | 0.213 µM | – |
| Cc1ncc(-c2ccc(C(=O)N[C@H](C(=O)N3C[C@H](Cl)[C@H]4OCC(=O)[C@H]43)C3CCCCC3)s2)cn1 [Example 30, N-((S)-2-((3aS,6S,6aS)-6-chloro-3-oxotetrahydro-2H-furo[3,2-b]pyrrol-4(5H)-yl)-1-cyclohexyl-2-oxoethyl)-5-(2-methylpyrimidin-5-yl)thiophene-2-carboxamide] | 7.2 | 28% | 0.01 µM | 0.072 µM | – |
| O=C(N[C@H](C(=O)N1C[C@H](Cl)[C@H]2OCC(=O)[C@H]21)C1CCCCC1)c1ncc(-c2ccncn2)s1 [Example 26, N-((S)-2-((3aS,6S,6aS)-6-chloro-3-oxotetrahydro-2H-furo[3,2-b]pyrrol-4(5H)-yl)-1-cyclohexyl-2-oxoethyl)-5-(pyrimidin-4-yl)thiazole-2-carboxamide] | 4.6 | 32% | 0.048 µM | 0.22 µM | – |
| O=C(N[C@H](C(=O)N1C[C@H](Cl)[C@H]2OCC(=O)[C@H]21)C1CCCCC1)c1ncc(-c2ccc(C(F)(F)F)nc2)s1 [Example 68, N-((S)-2-((3aS,6S,6aS)-6-chloro-3-oxotetrahydro-2H-furo[3,2-b]pyrrol-4(5H)-yl)-1-cyclohexyl-2-oxoethyl)-5-(6-(trifluoromethyl)pyridin-3-yl)thiazole-2-carboxamide] | 5.9 | 5% | 0.065 µM | 0.383 µM | – |
| CCc1cc(-c2ccc(C(=O)N[C@H](C(=O)N3C[C@H](Cl)[C@H]4OCC(=O)[C@H]43)C3CCCCC3)s2)ccn1 [Example 86, N-((S)-2-((3aS,6S,6aS)-6-chloro-3-oxotetrahydro-2H-furo[3,2-b]pyrrol-4(5H)-yl)-1-cyclohexyl-2-oxoethyl)-5-(2-ethylpyridin-4-yl)thiophene-2-carboxamide] | 16.7 | 25% | 0.001 µM | 0.024 µM | – |
| O=C(N[C@H](C(=O)N1C[C@H](Cl)[C@H]2OCC(=O)[C@H]21)C1CCCCC1)c1ncc(-c2cnc(C(F)(F)F)nc2)s1 [Example 67, N-((S)-2-((3aS,6S,6aS)-6-chloro-3-oxotetrahydro-2H-furo[3,2-b]pyrrol-4(5H)-yl)-1-cyclohexyl-2-oxoethyl)-5-(2-(trifluoromethyl)pyrimidin-5-yl)thiazole-2-carboxamide] | 4.7 | 8% | 0.042 µM | 0.198 µM | – |
| Cc1nccc(-c2ccc(C(=O)N[C@H](C(=O)N3C[C@H](Cl)[C@H]4OCC(=O)[C@H]43)C3CCCCC3)s2)n1 [Example 29, N-((S)-2-((3aS,6S,6aS)-6-chloro-3-oxotetrahydro-2H-furo[3,2-b]pyrrol-4(5H)-yl)-1-cyclohexyl-2-oxoethyl)-5-(2-methylpyrimidin-4-yl)thiophene-2-carboxamide] | 26.4 | 6% | – | – | – |
| O=C(N[C@H](C(=O)N1C[C@H](Cl)[C@H]2OCC(=O)[C@H]21)C1CCCCC1)c1ccc(-c2cccnc2)o1 [Example 10, N-((S)-2-((3aS,6S,6aS)-6-chloro-3-oxotetrahydro-2H-furo[3,2-b]pyrrol-4(5H)-yl)-1-cyclohexyl-2-oxoethyl)-5-(pyridin-3-yl)furan-2-carboxamide] | 11.3 | 16% | – | – | – |
| O=C(N[C@H](C(=O)N1C[C@H](Cl)[C@H]2OCC(=O)[C@H]21)C1CCCCC1)c1ccc(-c2ccncn2)o1 [Example 27, N-((S)-2-((3aS,6S,6aS)-6-chloro-3-oxotetrahydro-2H-furo[3,2-b]pyrrol-4(5H)-yl)-1-cyclohexyl-2-oxoethyl)-5-(pyrimidin-4-yl)furan-2-carboxamide] | 2.7 | 18% | – | – | – |

Other lines, results leading:

| Selectivity Ki(hCatS)/Ki(hCatK) [1] | inhibition at 31.6 µM [2] | Ki [3] | Ki [1] | inhibition at 10 µM ([1]; read-out: hCatS, inhibition [%] at 10 μM) | Compound |
| --- | --- | --- | --- | --- | --- |
| 21.5 | 15% | – | – | – | COc1ccc(-c2ccc(C(=O)N[C@H](C(=O)N3C[C@H](Cl)[C@H]4OCC(=O)[C@H]43)C3CCCCC3)s2)nn1 [Example 34, N-((S)-2-((3aS,6S,6aS)-6-chloro-3-oxotetrahydro-2H-furo[3,2-b]pyrrol-4(5H)-yl)-1-cyclohexyl-2-oxoethyl)-5-(6-methoxypyridazin-3-yl)thiophene-2-carboxamide] |
| 2.3 | 11% | 0.104 µM | 0.238 µM | – | O=C(N[C@H](C(=O)N1C[C@H](Cl)[C@H]2OCC(=O)[C@H]21)C1CCCCC1)c1sc(-c2ccnnc2)cc1F [Example 60, N-((S)-2-((3aS,6S,6aS)-6-chloro-3-oxotetrahydro-2H-furo[3,2-b]pyrrol-4(5H)-yl)-1-cyclohexyl-2-oxoethyl)-3-fluoro-5-(pyridazin-4-yl)thiophene-2-carboxamide] |
| 11.8 | 19% | 0.019 µM | 0.225 µM | – | N#Cc1cncc(-c2ccc(C(=O)N[C@H](C(=O)N3C[C@H](Cl)[C@H]4OCC(=O)[C@H]43)C3CCCCC3)s2)c1 [Example 39, N-((S)-2-((3aS,6S,6aS)-6-chloro-3-oxotetrahydro-2H-furo[3,2-b]pyrrol-4(5H)-yl)-1-cyclohexyl-2-oxoethyl)-5-(5-cyanopyridin-3-yl)thiophene-2-carboxamide] |
| 1.4 | 30% | 0.039 µM | 0.055 µM | – | COc1cnnc(-c2ccc(C(=O)N[C@H](C(=O)N3C[C@H](Cl)[C@H]4OCC(=O)[C@H]43)C3CCCCC3)s2)c1 [Example 72, N-((S)-2-((3aS,6S,6aS)-6-chloro-3-oxotetrahydro-2H-furo[3,2-b]pyrrol-4(5H)-yl)-1-cyclohexyl-2-oxoethyl)-5-(5-methoxypyridazin-3-yl)thiophene-2-carboxamide] |
| 1.9 | 15% | – | – | – | O=C(N[C@H](C(=O)N1C[C@H](Cl)[C@H]2OCC(=O)[C@H]21)C1CCCCC1)c1cnc(-c2ccnnc2)o1 [Example 21, N-((S)-2-((3aS,6S,6aS)-6-chloro-3-oxotetrahydro-2H-furo[3,2-b]pyrrol-4(5H)-yl)-1-cyclohexyl-2-oxoethyl)-2-(pyridazin-4-yl)oxazole-5-carboxamide] |
| – | 14% | – | – | 83% | O=C(N[C@H](C(=O)N1C[C@H](Cl)[C@H]2OCC(=O)[C@H]21)C1CCCCC1)c1nnc(-c2ccncc2)s1 [Example 28, N-((S)-2-((3aS,6S,6aS)-6-chloro-3-oxotetrahydro-2H-furo[3,2-b]pyrrol-4(5H)-yl)-1-cyclohexyl-2-oxoethyl)-5-(pyridin-4-yl)-1,3,4-thiadiazole-2-carboxamide] |
